Test results taken from patent US8993585B2, “Cyclic amine substituted pyrimidinediamines as PKC inhibitors” (Rigel Pharmaceuticals, Inc., priority 2007, dated 2015).

Tested on: Human primary T cells
Test: IL-2 ELISA, Human Primary T Cell, Anti-CD3+CD28+ (Example 3)
Format: cell-based
Conditions: Homo sapiens, T-cell, 24 h, anti-CD3+CD28 stimulation
Summary of the method: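 IL-2 was read by ELISA after stimulation on wells pre-coated with 1 ug/ml αCD3 and 5 μg/ml αCD28. Before this, 100,000 human primary T cells per well spent 1 h at 37 °C with test compound in Yssel's medium. The counter-screen replaced antibody stimulation with PMA (0.5 ng/ml final) and ionomycin (0.1 uM final).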

Row | IC50 | Structure (SMILES)
1 | 567 nM | CN1C(C)(C)CC(Nc2nc(Nc3ccc4c(c3)OC(C)(C)C(=O)N4CCCF)ncc2C#N)CC1(C)C [II-81]
2 | 710 nM | COc1ccc(-c2csc(Nc3ncc(F)c(NC4CC(C)(C)N(C)C(C)(C)C4)n3)n2)cc1OC [II-138]
3 | 3810 nM | CN1C(C)(C)CC(N(Cc2ccc3ccccc3c2)c2nc(Nc3ccc4c(c3)OCCO4)ncc2F)CC1(C)C [II-87]
4 | 77.2 nM | CCN1C(=O)C(C)(C)Sc2cc(Nc3ncc(F)c(NC4CC(C)(C)N(C)C(C)(C)C4)n3)ccc21 [II-63]
5 | 152 nM | CN1C(C)(C)CC(Nc2nc(Nc3ccc4c(c3)OC(C)(C)C(=O)N4CCF)ncc2C#N)CC1(C)C [II-79]
6 | 29.5 nM | COc1cc(Nc2ncc(F)c(NC3CC(C)(C)N(C)C(C)(C)C3)n2)cc(-n2nnnc2C)c1 [Compound I-358]
7 | 520 nM | Cc1ccc(C)n1-c1cc(Nc2ncc(F)c(NC3CC(C)(C)N(C)C(C)(C)C3)n2)ccc1OCCN1CCCC1 [Compound I-440]
8 | 460 nM | COc1ccc(-c2csc(Nc3ncc(F)c(NC4CC(C)(C)N(C)C(C)(C)C4)n3)n2)cc1F [II-137]
9 | 1350 nM | CC1(C)CC(Nc2nc(Nc3ccc4c(c3)OC3(CCCC3)O4)ncc2F)CC(C)(C)N1 [II-120]
10 | 1130 nM | CC(C)n1c(=O)oc2cc(Nc3ncc(C#N)c(NC4CC(C)(C)NC(C)(C)C4)n3)ccc21 [II-162]
11 | 450 nM | COc1cc(Nc2ncc(F)c(NC3CC(C)(C)N(C)C(C)(C)C3)n2)cc(OCCN2CCOCC2)c1 [Compound I-431]
12 | 327 nM | CC(C)n1c(=O)oc2cc(Nc3ncc(C#N)c(NC4CC(C)(C)N(C)C(C)(C)C4)n3)ccc21 [II-70]
13 | 391 nM | CCn1c(=O)oc2cc(Nc3ncc(F)c(NC4CC(C)(C)N(C)C(C)(C)C4)n3)ccc21 [II-46]
14 | 420 nM | CN(C)c1ccc(-c2ccc(Nc3ncc(F)c(NC4CC(C)(C)N(C)C(C)(C)C4)n3)cc2C#N)cn1 [Compound I-426]
15 | 835 nM | CN1C(C)(C)CC(Nc2nc(Nc3nc(-c4ccc(Cl)cc4)cs3)ncc2F)CC1(C)C [II-15]
16 | 910 nM | CN1C(C)(C)CC(Nc2nc(Nc3nc(-c4cccnc4)cs3)ncc2F)CC1(C)C [II-136]
17 | 3860 nM | CN1C(C)(C)CC(N(Cc2ccc(-c3ccccc3C#N)cc2)c2nc(Nc3ccc4c(c3)OCCO4)ncc2F)CC1(C)C [II-91]
18 | 2140 nM | CN1C(C)(C)CC(Nc2nc(Nc3cc4c(cc3F)OC(F)(F)O4)ncc2F)CC1(C)C [II-176]
19 | 10500 nM | Cc1ccc(Nc2ncc(F)c(NC3CC(C)(C)N(CCC(=O)O)C(C)(C)C3)n2)cc1C#N [Compound I-306]
20 | 990 nM | CN1C(=O)c2ccc(Nc3ncc(F)c(NC4CC(C)(C)N(C)C(C)(C)C4)n3)cc2C1=O [II-149]
21 | 1810 nM | CC1(C)CC(Nc2nc(Nc3ccc4c(c3)OC3(CCCCC3)O4)ncc2F)CC(C)(C)N1 [II-121]
22 | 450 nM | CN1C(C)(C)CC(Nc2nc(Nc3ccc4c(c3)OCCO4)ncc2Br)CC1(C)C [II-127]
23 | 4740 nM | CC(C)N1CCc2cc(Nc3ncc(F)c(NC4CC(C)(C)N(C)C(C)(C)C4)n3)ccc21 [II-53]
24 | 3500 nM | CN1C(C)(C)CC(Nc2nc(Nc3ccc4c(c3)oc(=O)n4CCN3CCOCC3)ncc2C#N)CC1(C)C [II-169]

Row | Structure (SMILES) | IC50
25 | COc1cc(Nc2ncc(F)c(N(Cc3ccccc3)C3CC(C)(C)N(C)C(C)(C)C3)n2)cc(OC)c1 [Compound I-308] | 809 nM
26 | Cc1ccc(Nc2ncc(F)c(N(Cc3ccccc3)C3CC(C)(C)N(C)C(C)(C)C3)n2)cc1C#N [Compound I-313] | 793 nM

Same assay, conditions: T-cell, anti-CD3+CD28 stimulation, 24 hours

Row | Structure (SMILES) | IC50
27 | CCN1C(=O)C(C)(C)Oc2cc(Nc3ncc(C#C[Si](C)(C)C)c(NC4CC(C)(C)N(C)C(C)(C)C4)n3)ccc21 [II-151] | 1250 nM

Same assay, conditions: anti-CD3+CD28 stimulation, 24 hours

Row | IC50 | Structure (SMILES)
28 | 248 nM | CC(C)Oc1ccc(Nc2ncc(F)c(NC3CC(C)(C)N(C)C(C)(C)C3)n2)cc1Cl [Compound I-346]
29 | 629 nM | COc1c(C)cc(Nc2ncc(F)c(NC3CC(C)(C)N(C)C(C)(C)C3)n2)cc1C [Compound I-131]
30 | 720 nM | CN1C(C)(C)CC(Nc2ccnc(Nc3ccc(N4CCN(S(C)(=O)=O)CC4)c(C(F)(F)F)c3)n2)CC1(C)C [Compound I-228]
31 | 3210 nM | CCOC(=O)c1cnc(Nc2ccc(N3CCN(C)CC3)c(C(F)(F)F)c2)nc1NC1CC(C)(C)N(C)C(C)(C)C1 [Compound I-82]
32 | 470 nM | COc1cc(Nc2ncc(C#N)c(NC3CC(C)(C)NC(C)(C)C3)n2)cc(-n2nnnc2C)c1 [Compound I-402]
33 | 3620 nM | CCN(CC)C1CCC(Nc2nc(Nc3ccc(N4CCN(C)CC4)c(C(F)(F)F)c3)ncc2F)CC1 (stereo not drawn) [IV-7, N4-(4-Diethylamino)cyclohexyl-5-fluoro-N2-[4-(4-methylpiperazino)-3-trifluoromethyl]phenyl-2,4-pyrimidinediamine]
34 | 100 nM | Cc1nnnn1-c1cccc(Nc2ncc(F)c(NC3CC(C)(C)N(C)C(C)(C)C3)n2)c1 [Compound I-396]
35 | 910 nM | CC1(C)CC(Nc2nc(Nc3ccc(OCCN4CCOCC4)c(Cl)c3)ncc2C#N)CC(C)(C)N1 [Compound I-445]
36 | 6550 nM | COc1ccc(Nc2ncc(F)c(NC3CC(C)(C)N(C)C(C)(C)C3)n2)cc1OCC(=O)NC1CC1 [Compound I-412]
37 | 407 nM | CN1C(C)(C)CC(Nc2nc(Nc3ccc4c(c3)OC(C)(C)C(=O)N4)ncc2F)CC1(C)C [II-33]
38 | 680 nM | Cc1ccc(Nc2ncc(C(F)(F)F)c(NC3CC(C)(C)N(C)C(C)(C)C3)n2)cc1C#N [Compound I-171]
39 | 180 nM | CSc1nnnn1-c1cccc(Nc2ncc(C#N)c(NC3CC(C)(C)N(C)C(C)(C)C3)n2)c1 [Compound I-464]
40 | 5080 nM | CN1C(C)(C)CC(Nc2nc(Nc3cccc(O)c3)ncc2F)CC1(C)C [Compound I-327]
41 | 257 nM | COC(=O)N1CCN(c2ccc(Nc3ncc(F)c(NC4CC(C)(C)N(C)C(C)(C)C4)n3)cc2Cl)CC1 [Compound I-62]
42 | 497 nM | COc1ccc(Nc2ncc(C)c(NC3CC(C)(C)N(C)C(C)(C)C3)n2)cc1Cl [Compound I-27]
43 | 5100 nM | COC(=O)CCN1C(C)(C)CC(Nc2nc(Nc3ccc(OC)c(C(F)(F)F)c3)ncc2F)CC1(C)C [Compound I-295]
44 | 1410 nM | CN1C(C)(C)CC(Nc2nc(Nc3cccc(-c4cnn(C)c4)c3)ncc2F)CC1(C)C [Compound I-143]
45 | 2650 nM | CN1C(C)(C)CC(Nc2nc(Nc3ccc(F)c(C#N)c3)ncc2C(F)(F)F)CC1(C)C [Compound I-170]
46 | 2380 nM | COc1ccc(Nc2ncc(F)c(NC3CCN(C)CC3)n2)cc1Cl [III-1, N2-(3-Chloro-4-methoxy)phenyl-5-fluoro-N4-(1-methylpiperidin-4-yl)-2,4-pyrimidinediamine]
47 | 4320 nM | CN1C(C)(C)CCC(Nc2nc(Nc3cc(Cl)cc(Cl)c3)ncc2F)CC1(C)C (stereo not drawn) [Compound I-265, 5-Fluoro-N2-[3,5-dichloro]phenyl-N4-(1,2,2,7,7-pentamethylazepan-4-yl)-2,4-pyrimidinediamine]
48 | 706 nM | CN1C(C)(C)CC(Nc2nc(Nc3ccc(OC(F)(F)F)c(-c4ccoc4)c3)ncc2F)CC1(C)C [Compound I-209]

Row | IC50 | Structure (SMILES)
49 | 2430 nM | CN1C(C)(C)CC(Nc2nc(Nc3ccc(OCC(N)=O)cc3)ncc2F)CC1(C)C [Compound I-134]
50 | 965 nM | CN1C(C)(C)CC(Nc2nc(Nc3cc(-c4cc5ccccc5s4)cc(C(F)(F)F)c3)ncc2F)CC1(C)C [Compound I-205]
51 | 2590 nM | CN1C(C)(C)CC(Nc2nc(Nc3ccc(N4CCNCC4)c(Cl)c3)ncc2[N+](=O)[O-])CC1(C)C [Compound I-77]
52 | 410 nM | CC(C)N1C(=O)C2(CCC2)Oc2cc(Nc3ncc(F)c(NC4CC(C)(C)N(C)C(C)(C)C4)n3)ccc21 [II-165]
53 | 8200 nM | COc1cccc(Nc2ncc(F)c(NC3CCC(C)(C)N(C)C(C)(C)C3)n2)c1 (stereo not drawn) [Compound I-269, 5-Fluoro-N2-[3-methoxy]phenyl-N4-(1,2,2,7,7-pentamethylazepan-4-yl)-2,4-pyrimidinediamine]
54 | 178 nM | CN1C(C)(C)CC(Nc2nc(Nc3ccc4c(c3)OC(C)(C)C(=O)N4CC3CC3)ncc2F)CC1(C)C [II-76]
55 | 604 nM | CN1C(C)(C)CC(Nc2nc(Nc3ccc(C#N)c(C(F)(F)F)c3)ncc2F)CC1(C)C [Compound I-152]
56 | 6850 nM | Cc1ccc(Nc2ncc(C)c(NC3CC(C)(C)N(C)C(C)(C)C3)n2)cc1S(N)(=O)=O [Compound I-15]
57 | 2200 nM | COc1ccc(Nc2ncc(F)c(NC3CC(C)(C)N(C)C(C)(C)C3)n2)cc1OC(C)C [Compound I-360]
58 | 1830 nM | COc1cc(Nc2ncc(Br)c(NC3CC(C)(C)N(C)C(C)(C)C3)n2)cc(OC)c1OC [Compound I-276]
59 | 34500 nM | COc1cc(C)c(Nc2ncc(F)c(NC3CC(C)(C)NC(C)(C)C3)n2)cc1OC [Compound I-379]
60 | 1080 nM | COC(=O)C=CN1C(C)(C)CC(Nc2nc(Nc3cc(OC)cc(OC)c3)ncc2F)CC1(C)C [Compound I-298]
61 | 2670 nM | COc1ccc(Nc2ncc(F)c(NC3CC(C)(C)N(C)C(C)(C)C3)n2)cc1OCc1ccncc1 [Compound I-417]
62 | 304 nM | CN1C(C)(C)CC(Nc2nc(Nc3ccc(-c4ccncc4)c(Cl)c3)ncc2F)CC1(C)C [Compound I-99]
63 | 1670 nM | CSc1nnnn1-c1cccc(Nc2ncc(C(N)=O)c(NC3CC(C)(C)NC(C)(C)C3)n2)c1 [Compound I-457]
64 | 1210 nM | COc1ccc(Nc2ncc(Br)c(NC3CC(C)(C)N(C)C(C)(C)C3)n2)cc1OC [Compound I-274]
65 | 3060 nM | CNC(=O)c1cc(Nc2ncc(F)c(NC3CC(C)(C)N(C)C(C)(C)C3)n2)ccc1N1CCN(C)CC1 [Compound I-54]
66 | 315 nM | COc1ccc(Nc2ncc(F)c(NC3CC(C)(C)N(C)C(C)(C)C3)n2)cc1OC(F)(F)F [Compound I-343]
67 | 532 nM | CN1C(C)(C)CC(Nc2nc(Nc3ccc(C#N)c(Cl)c3)ncc2C(F)(F)F)CC1(C)C [Compound I-33]
68 | 1700 nM | CN1C(C)(C)CC(Nc2nc(Nc3ccc(OC(F)(F)F)c(-c4cc5ccccc5s4)c3)ncc2F)CC1(C)C [Compound I-211]

Row | Structure (SMILES) | IC50
69 | CC1(C)CC(Nc2nc(Nc3cc(Cl)cc(Cl)c3)ncc2F)CC(C)(C)N1CCN [Compound I-447] | 910 nM
